# From patent US12251382B2, “Substituted amino-pyrimidine compound for use in a method for treatment and prevention of multiple sclerosis” (Merck Patent GmbH, priority 2018, dated 2025)
# Like-named read-outs stand apart in the source and are kept apart here.
# [1] = Part 1, pooled active, listed as evobrutinib
# Experimental: A randomized, double-blind, placebo-controlled trial conducted in healthy volunteers. […] Written informed consent was obtained from all participants.
# Following completion of each dose cohort in both parts of the study, a safety monitoring committee (SMC) decided whether protocol-defined dose escalation to the next level was appropriate to a maximum of 500 mg in Part 1, or to the highest safe and tolerated dose or highest dose from Part 1 in Part 2, based on all safety data and other available data (including PK and PD data). […] Other safety data (e.g., hematology parameters) were also taken into consideration for dose escalation decisions as a matter of course.
# TEAEs and SAEs were recorded from time of informed consent until study completion. […] Assessment of severity considered the Toxicity Grading Scale for Healthy Adult and Adolescent Volunteers Enrolled in Preventative Vaccine Clinical Trials. Data were summarized using descriptive statistics.
smiles,measurement,setting,value
"C=CC(=O)N1CCC(CNc2ncnc(N)c2-c2ccc(Oc3ccccc3)cc2)CC1 [Evobrutinib, 1-(4-(((6-amino-5-(4-phenoxyphenyl)pyrimidin-4-yl)amino)methyl)piperidin-1-yl)prop-2-en-1-one]",Severity of TEAEs,Part 1,mild (Grade 1) except in one subject in the 200 mg treatment group
same,Subjects with contact dermatitis at locations of ECG pads,"Part 1, all evobrutinib doses",5.6%
same,Subjects with headache,"Part 1, all evobrutinib doses",5.6%
same,Dose-limiting TEAE,"Part 1, one subject in the 200 mg treatment group",Grade 4 increased lipase in combination with Grade 3 increased amylase
same,"Abdominal pain, subjects","Part 1, pooled active",0 (0.0) n (%)
same,"Amylase increased, number of TEAEs","Part 1, pooled active",[1]
same,"Amylase increased, subjects","Part 1, pooled active",1 (2.8) n (%)
same,"Application site pruritus (due to ECG stickers), subjects","Part 1, pooled active",0 (0.0) n (%)
same,"Back pain, number of TEAEs","Part 1, pooled active",[1]
same,"Back pain, subjects","Part 1, pooled active",1 (2.8) n (%)
same,"Contact dermatitis, number of TEAEs","Part 1, pooled active",[2]
same,"Contact dermatitis, subjects","Part 1, pooled active",2 (5.6) n (%)
same,"Dizziness, number of TEAEs","Part 1, pooled active",[1]
same,"Dizziness, subjects","Part 1, pooled active",1 (2.8) n (%)
same,"Dry eye, number of TEAEs","Part 1, pooled active",[1]
same,"Dry eye, subjects","Part 1, pooled active",1 (2.8) n (%)
same,"Dry mouth, subjects","Part 1, pooled active",0 (0.0) n (%)
same,"Dyspepsia, number of TEAEs","Part 1, pooled active",[1]
same,"Dyspepsia, subjects","Part 1, pooled active",1 (2.8) n (%)
same,"Excoriation, number of TEAEs","Part 1, pooled active",[1]
same,"Excoriation, subjects","Part 1, pooled active",1 (2.8) n (%)
same,"Headache, number of TEAEs","Part 1, pooled active",[3]
same,"Headache, subjects","Part 1, pooled active",2 (5.6) n (%)
same,"Lipase increased, number of TEAEs","Part 1, pooled active",[1]
same,"Lipase increased, subjects","Part 1, pooled active",1 (2.8) n (%)
same,"Multiple injuries, number of TEAEs","Part 1, pooled active",[1]
same,"Multiple injuries, subjects","Part 1, pooled active",1 (2.8) n (%)
same,"Nasal congestion, number of TEAEs","Part 1, pooled active",[1]
same,"Nasal congestion, subjects","Part 1, pooled active",1 (2.8) n (%)
same,"Noncardiac chest pain, subjects","Part 1, pooled active",0 (0.0) n (%)
same,"Odynophagia, number of TEAEs","Part 1, pooled active",[1]
same,"Odynophagia, subjects","Part 1, pooled active",1 (2.8) n (%)
same,"Overall total TEAEs, subjects","Part 1, pooled active",9 (25.5) n (%)
same,"Overall total, number of TEAEs","Part 1, pooled active",[15]
same,"Upper respiratory tract infection, subjects","Part 1, pooled active",0 (0.0) n (%)
same,"Contact dermatitis, number of TEAEs",[1],two
same,"Headache, number of TEAEs",[1],three
same,"Overall total, number of TEAEs",[1],15
same,"Abdominal pain, subjects","Part 1, single dose 25 mg",0 (0.0) n (%)
same,"Amylase increased, subjects","Part 1, single dose 25 mg",0 (0.0) n (%)
same,"Application site pruritus (due to ECG stickers), subjects","Part 1, single dose 25 mg",0 (0.0) n (%)
same,"Back pain, subjects","Part 1, single dose 25 mg",0 (0.0) n (%)
same,"Contact dermatitis, subjects","Part 1, single dose 25 mg",0 (0.0) n (%)
same,"Dizziness, subjects","Part 1, single dose 25 mg",0 (0.0) n (%)
same,"Dry eye, subjects","Part 1, single dose 25 mg",0 (0.0) n (%)
same,"Dry mouth, subjects","Part 1, single dose 25 mg",0 (0.0) n (%)
same,"Dyspepsia, subjects","Part 1, single dose 25 mg",0 (0.0) n (%)
same,"Excoriation, subjects","Part 1, single dose 25 mg",0 (0.0) n (%)
same,"Headache, subjects","Part 1, single dose 25 mg",0 (0.0) n (%)
same,"Lipase increased, subjects","Part 1, single dose 25 mg",0 (0.0) n (%)
same,"Multiple injuries, subjects","Part 1, single dose 25 mg",0 (0.0) n (%)
same,"Nasal congestion, subjects","Part 1, single dose 25 mg",0 (0.0) n (%)
same,"Noncardiac chest pain, subjects","Part 1, single dose 25 mg",0 (0.0) n (%)
same,"Odynophagia, subjects","Part 1, single dose 25 mg",0 (0.0) n (%)
same,"Overall total TEAEs, subjects","Part 1, single dose 25 mg",0 (0.0) n (%)
same,"Upper respiratory tract infection, subjects","Part 1, single dose 25 mg",0 (0.0) n (%)
same,"Abdominal pain, subjects","Part 1, single dose 50 mg",0 (0.0) n (%)
same,"Amylase increased, subjects","Part 1, single dose 50 mg",0 (0.0) n (%)
same,"Application site pruritus (due to ECG stickers), subjects","Part 1, single dose 50 mg",0 (0.0) n (%)
same,"Back pain, number of TEAEs","Part 1, single dose 50 mg",[1]
same,"Back pain, subjects","Part 1, single dose 50 mg",1 (16.7) n (%)
same,"Contact dermatitis, number of TEAEs","Part 1, single dose 50 mg",[2]
same,"Contact dermatitis, subjects","Part 1, single dose 50 mg",2 (33.3) n (%)
same,"Dizziness, subjects","Part 1, single dose 50 mg",0 (0.0) n (%)
same,"Dry eye, subjects","Part 1, single dose 50 mg",0 (0.0) n (%)
same,"Dry mouth, subjects","Part 1, single dose 50 mg",0 (0.0) n (%)
same,"Dyspepsia, number of TEAEs","Part 1, single dose 50 mg",[1]
same,"Dyspepsia, subjects","Part 1, single dose 50 mg",1 (16.7) n (%)
same,"Excoriation, subjects","Part 1, single dose 50 mg",0 (0.0) n (%)
same,"Headache, number of TEAEs","Part 1, single dose 50 mg",[2]
same,"Headache, subjects","Part 1, single dose 50 mg",1 (16.7) n (%)
same,"Lipase increased, subjects","Part 1, single dose 50 mg",0 (0.0) n (%)
same,"Multiple injuries, subjects","Part 1, single dose 50 mg",0 (0.0) n (%)
same,"Nasal congestion, subjects","Part 1, single dose 50 mg",0 (0.0) n (%)
same,"Noncardiac chest pain, subjects","Part 1, single dose 50 mg",0 (0.0) n (%)
same,"Odynophagia, subjects","Part 1, single dose 50 mg",0 (0.0) n (%)
same,"Overall total TEAEs, subjects","Part 1, single dose 50 mg",3 (50.0) n (%)
same,"Overall total, number of TEAEs","Part 1, single dose 50 mg",[6]
same,"Upper respiratory tract infection, subjects","Part 1, single dose 50 mg",0 (0.0) n (%)
same,"Abdominal pain, subjects","Part 1, single dose 100 mg",0 (0.0) n (%)
same,"Amylase increased, subjects","Part 1, single dose 100 mg",0 (0.0) n (%)
same,"Application site pruritus (due to ECG stickers), subjects","Part 1, single dose 100 mg",0 (0.0) n (%)
same,"Back pain, subjects","Part 1, single dose 100 mg",0 (0.0) n (%)
same,"Contact dermatitis, subjects","Part 1, single dose 100 mg",0 (0.0) n (%)
same,"Dizziness, subjects","Part 1, single dose 100 mg",0 (0.0) n (%)
